# In paper PMC8621172, “Manipulating Estrogenic/Anti-Estrogenic Activity of Triphenylethylenes towards Development of Novel Anti-Neoplastic SERMs” (International Journal of Molecular Sciences, 2021):
# Entries after “also recorded” stand apart in the source; their conditions may differ.
# Experiments:
# Hs578T = assay: NCI five-dose assay, TNBC cell line Hs578T; type: cell-based, human
# Procedure: (§1) All compounds were subjected to the NCI in vitro disease-oriented human cells screening panel assay. The human tumor cell lines of the cancer-screening panel are grown in RPMI 1640 medium containing 5% fetal bovine serum and 2 mM L-glutamine. For a typical screening experiment, cells are inoculated into 96-well microtiter plates in 100 μL at plating densities ranging from 5000 to 40,000 cells/well depending on the doubling time of individual cell lines. After cell inoculation, the microtiter plates are incubated at 37 °C, 5% CO2, 95% air, and 100% relative humidity for 24 h prior to the addition of experimental drugs. After 24 h, two plates of each cell line are fixed in situ with TCA to represent a measurement of the cell population for each cell line at the time of drug addition. Experimental drugs are solubilized in dimethyl sulfoxide at 400-fold the desired final maximum test concentration and stored frozen prior to use. At the time of drug addition, an aliquot of frozen concentrate is thawed and diluted to twice the desired final maximum test concentration with complete medium containing 50 μg/mL gentamicin. Additional four, 10-fold, or ½ log serial dilutions are made to provide a total of five drug concentrations plus control. Aliquots of 100 μL of these different drug dilutions are added to the appropriate microtiter wells already containing 100 μL of medium, resulting in the required final drug concentrations. Following drug addition, the plates are incubated for an additional 48 h at 37 °C, 5% CO2, 95% air, and 100% relative humidity. For adherent cells, the assay is terminated by the addition of cold TCA. Cells are fixed in situ by the gentle addition of 50 μL of cold 50% (w/v) TCA (final concentration, 10% TCA) and incubated for 60 min at 4 °C. […] Bound stain is subsequently solubilized with a 10 mM trizma base, and the absorbance is read on an automated plate reader at a wavelength of 515 nm. […] Three response parameters (GI50, TGI, and LC50) were calculated for each cell line.
# ovariectomized rats = assay: Uterotrophic assay in ovariectomized rats; type: in vivo, rat; details: for uterotrophic effect (in words): compared to TAM; for Relative uterus wet weight: s.c. 10 mg/kg/d BW for three days
# Text: Compounds showing appreciable estrogenic activity in the YES assay and that were able to inhibit the growth of MCF-7 cancer cell lines yet with low estrogenic activity on Ishikawa endometrial adenocarcinoma cells might serve as potential ideal SERMS. Compounds 12 and 19 were therefore selected for the in vivo experiments to assess their estrogenic properties in an uterotrophic assay in an ovariectomized rat model. The in vivo uterotrophic rat assay is the gold standard assay to test for the estrogenic effect of compounds; the assay uses adult ovariectomized (OVX) female rats where there is no significant source of endogenous estrogens. Compounds that have estrogenic effects cause uterotrophic response due to the imbibition of water and growth of the uterine cells. Statistically significant uterine weight increases compared to controls provide a positive result. Adopting both in vivo and in vitro assays was inevitable due to the limitations of each assay. The cell lines are not properly able to recapitulate the in vivo environment of the uterus within the body. On the other hand, the rat uterotrophic assay merely considers the uterine weight gain as an endpoint of estrogenicity without taking into account all factors that play a role in exerting an estrogenic effect on the organ and body.
# The most common short-term in vivo assay for estrogenicity/anti-estrogenicity is the uterotrophic assay, suitable for screening ERα agonists and antagonists. The primary endpoint is the uterine wet weight (UWW). An increase in UWW indicates an estrogenic activity of the test compound. Compounds 12 and 19 were screened using the in vivo uterotrophic assay.
# The most common short-term in vivo assay for (anti)-estrogenicity is the uterine growth test, suitable for screening ERα agonists and antagonists. The primary endpoint is the uterine wet weight (UWW). An increase in UWW indicates an estrogenic activity of the test compound [43]. Sprague Dawley female rats (170–200 g) were obtained from the animal colony of the National Institute of Research (Cairo, Egypt). The rats were housed in a temperature-controlled room (23–24 °C) with a 12 h light:dark cycle and with free access to food and water. They were allowed to acclimatize to the animal house of the German University in Cairo for at least 1 week before initiating the experiments. All efforts were made to minimize animal discomfort and suffering. Animals were ovariectomized. After 14 days of endogenous hormonal decline, the animals were subcutaneously treated for three days with respective compounds. The animals were randomly allocated to treatment and vehicle groups (n = 6). […] The uterus wet weight was determined.
# NSCLC cell lines = assay: NCI five-dose assay, NSCLC subpanel; type: cell-based; details: Homo sapiens
# Procedure: as §1, with “gentamicin.” for “gentamicin. Additional four, 10-fold, or ½ log serial dilutions are made to provide a total of five drug concentrations plus control. Aliquots of 100 μL of these different drug dilutions are added to the appropriate microtiter wells already containing 100 μL of medium, resulting in the required final drug concentrations. Following drug addition, the plates are incubated for an additional 48 h at 37 °C, 5% CO2, 95% air, and 100% relative humidity. For adherent cells, the assay is terminated by the addition of cold TCA. Cells are fixed in situ by the gentle addition of 50 μL of cold 50% (w/v) TCA (final concentration, 10% TCA) and incubated for 60 min at 4 °C.”
# renal cell lines = assay: NCI five-dose assay, renal subpanel; type: cell-based; details: Homo sapiens
# Procedure: as §1, with “gentamicin.” for “gentamicin. Additional four, 10-fold, or ½ log serial dilutions are made to provide a total of five drug concentrations plus control. Aliquots of 100 μL of these different drug dilutions are added to the appropriate microtiter wells already containing 100 μL of medium, resulting in the required final drug concentrations. Following drug addition, the plates are incubated for an additional 48 h at 37 °C, 5% CO2, 95% air, and 100% relative humidity. For adherent cells, the assay is terminated by the addition of cold TCA. Cells are fixed in situ by the gentle addition of 50 μL of cold 50% (w/v) TCA (final concentration, 10% TCA) and incubated for 60 min at 4 °C.”
# prostate cell lines = assay: NCI five-dose assay, prostate subpanel; type: cell-based; details: Homo sapiens
# Procedure: as §1, with “gentamicin.” for “gentamicin. Additional four, 10-fold, or ½ log serial dilutions are made to provide a total of five drug concentrations plus control. Aliquots of 100 μL of these different drug dilutions are added to the appropriate microtiter wells already containing 100 μL of medium, resulting in the required final drug concentrations. Following drug addition, the plates are incubated for an additional 48 h at 37 °C, 5% CO2, 95% air, and 100% relative humidity. For adherent cells, the assay is terminated by the addition of cold TCA. Cells are fixed in situ by the gentle addition of 50 μL of cold 50% (w/v) TCA (final concentration, 10% TCA) and incubated for 60 min at 4 °C.”
# MDA-MB-468 = assay: NCI five-dose assay, TNBC cell line MDA-MB-468; type: cell-based, human; details: MDA-MB-468, five-dose assay
# Procedure: as §1, with “gentamicin.” for “gentamicin. Additional four, 10-fold, or ½ log serial dilutions are made to provide a total of five drug concentrations plus control. Aliquots of 100 μL of these different drug dilutions are added to the appropriate microtiter wells already containing 100 μL of medium, resulting in the required final drug concentrations. Following drug addition, the plates are incubated for an additional 48 h at 37 °C, 5% CO2, 95% air, and 100% relative humidity. For adherent cells, the assay is terminated by the addition of cold TCA. Cells are fixed in situ by the gentle addition of 50 μL of cold 50% (w/v) TCA (final concentration, 10% TCA) and incubated for 60 min at 4 °C.”
Structure (SMILES),anti-proliferative activity compared to TAM (Hs578T),uterotrophic effect (in words) (ovariectomized rats),Relative uterus wet weight (ovariectomized rats) [g/kg BW],GI50 (NSCLC cell lines) [nM],GI50 (renal cell lines) [nM],GI50 (prostate cell lines) [nM],anti-proliferative activity compared to TAM (MDA-MB-468)
"COc1ccc(C(C)=C(c2ccc(Cl)cc2)c2ccc(OCCN3CCCCC3)cc2)cc1F [Compound 17, E/Z-1-(2-{4-[1-(4-Chlorophenyl)-2-(3-fluoro-4-methoxyphenyl)-propenyl]-phenoxy}-ethyl)-piperidine]",more potent than TAM,–,–,–,–,–,–
"COc1ccc(C(C)=C(c2ccc(Cl)cc2)c2ccc(OCCN3CCCCC3)cc2)cc1 [Compound 12, E/Z-1-(2-{4-[1-(4-Chloro-phenyl)-2-(4-methoxy-phenyl)-propenyl]-phenoxy}-ethyl)-piperidine]",–,no uterotrophic effect; also recorded: less increase in UWW,1.23 ± 0.18,–,–,–,–
"CCN(CC)CCOc1ccc(C(=C(C)c2ccc(F)c(OC)c2)c2ccc(Cl)cc2)cc1 [Compound 28, E/Z-(2-{4-[1-(4-Chlorophenyl)-2-(4-fluoro-3-methoxyphenyl)-propenyl]-phenoxy}-ethyl)-diethyl-amine]",more potent than TAM,–,–,2340,2400,2310,equipotent to TAM
"COc1ccc(C(C)=C(c2ccc(Cl)cc2)c2ccc(OCCN3CCCCCC3)cc2)cc1F [Compound 19, E/Z-1-(2-{4-[1-(4-Chlorophenyl)-2-(3-fluoro-4-methoxyphenyl)-propenyl]-phenoxy}-ethyl)-azepane]",more potent than TAM,less increase in UWW,1.15 ± 0.18,–,–,–,–
